For data set [1], the target named is T1, soluble guanylate cyclase (sGC) expressed by CHO-K1-Rat sGC monoclonal cell line (Rattus norvegicus, UniProt P19686+P20595).
T1 construct: expressed in transfected cells; host or cells: CHO-K1
T1 sequence (P19686 1-690): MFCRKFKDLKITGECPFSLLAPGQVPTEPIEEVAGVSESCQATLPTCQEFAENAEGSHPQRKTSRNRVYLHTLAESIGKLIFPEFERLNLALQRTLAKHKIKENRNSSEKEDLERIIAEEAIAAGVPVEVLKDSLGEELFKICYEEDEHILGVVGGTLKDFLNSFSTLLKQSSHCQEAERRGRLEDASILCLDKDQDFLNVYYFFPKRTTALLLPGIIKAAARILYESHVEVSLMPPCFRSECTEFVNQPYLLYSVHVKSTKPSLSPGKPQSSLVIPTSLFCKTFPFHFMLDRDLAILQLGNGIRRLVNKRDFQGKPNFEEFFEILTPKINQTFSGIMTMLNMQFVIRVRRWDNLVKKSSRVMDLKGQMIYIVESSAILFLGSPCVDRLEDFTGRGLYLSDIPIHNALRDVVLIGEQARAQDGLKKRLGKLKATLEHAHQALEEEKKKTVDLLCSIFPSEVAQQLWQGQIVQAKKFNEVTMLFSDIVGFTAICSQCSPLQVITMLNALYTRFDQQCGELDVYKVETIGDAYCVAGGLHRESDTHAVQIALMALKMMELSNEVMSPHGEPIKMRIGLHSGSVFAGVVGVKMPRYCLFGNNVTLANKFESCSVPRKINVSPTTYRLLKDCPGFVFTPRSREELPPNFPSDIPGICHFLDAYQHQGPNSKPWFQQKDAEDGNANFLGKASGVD
T1 sequence (P20595 1-619): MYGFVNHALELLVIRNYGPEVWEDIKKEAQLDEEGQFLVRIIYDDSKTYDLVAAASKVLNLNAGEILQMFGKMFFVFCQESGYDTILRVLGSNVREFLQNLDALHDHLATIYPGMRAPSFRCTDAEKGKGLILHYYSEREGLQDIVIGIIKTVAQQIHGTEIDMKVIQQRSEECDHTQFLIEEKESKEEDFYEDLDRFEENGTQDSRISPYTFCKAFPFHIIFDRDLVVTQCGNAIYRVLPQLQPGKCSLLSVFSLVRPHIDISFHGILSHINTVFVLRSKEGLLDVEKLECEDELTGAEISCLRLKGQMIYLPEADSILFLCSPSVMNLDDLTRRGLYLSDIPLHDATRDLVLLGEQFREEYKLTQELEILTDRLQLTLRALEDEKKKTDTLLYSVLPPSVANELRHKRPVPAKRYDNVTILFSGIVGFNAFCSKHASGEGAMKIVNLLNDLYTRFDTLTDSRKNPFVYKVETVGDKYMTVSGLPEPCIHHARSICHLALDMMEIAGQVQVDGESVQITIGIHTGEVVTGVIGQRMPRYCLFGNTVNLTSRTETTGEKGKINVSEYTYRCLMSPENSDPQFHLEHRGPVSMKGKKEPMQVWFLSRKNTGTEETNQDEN
The data set can be described thus: Effect on recombinant guanylate cyclase reporter cell line (CHO-K1-Rat sGC, Cisbio cGMP HTRF). The class given is cell-based. The settings on record: activating soluble guanylate cyclase. An excerpt: Transfection of Soluble Guanylate Cyclase (sGC) gene into CHO-K1 cells and selection of cells with stably and highly expressed sGC: Rat sGCα1 and Rat sGCβ1 Genes were synthesized, and then pcDNA3.1(+)-rat sGCα1 and pcDNA3.1/Hygro (+)-rat sGCβ1 plasmid were constructed; the plasmid was co-transfected into CHO-K1 cells, and a positive clone cell line stably expressing CHO-K1-Rat sGC was selected using the Cisbio cGMP HTRF assay kit.
The activity of the compound on the CHO-K1-Rat sGC monoclonal cell line was determined: The CHO-K1-Rat sGC monoclonal cell line was cultured, and used for test operation at degree of fusion of about 70% to 90%. The cells were resuspended in complete medium after TrypLE digestion; the cells were inoculated in a 384-well (low volume tissues culture treated) cell culture plate at a seeding density of 7500/well in 25 μL of complete medium and incubated at 37° C. in 5% CO2 atmosphere for 20 hours; the test compounds were dissolved and dilute with DMSO to give 10 concentration gradients (2× working concentration); 384-well cell culture plates were centrifugated (200 g) for 3 seconds by inversion at RT, medium was removed; The test compounds in each different concentration gradient and corresponding reagent were added into each cell well according to the detection process of Cisbio cGMP HTRF assay kit. The data were collected with Envision HTRF detector and the EC50 value of each compound in activating soluble guanylate cyclase was calculated.

The nature of data set [2]: Pharmacokinetics in male SD rats after intravenous and oral administration. It is filed as in vivo. The settings on record: for F: po 5 mg/kg versus iv 1 mg/kg; for AUC(0-t) / Cmax / Tmax / clearance / half-life / Vd: rat, plasma; for Vd: read-out: Vss. How it is done:
Preparation of test compound solution: The test compound was formulated with 5% dimethylsulfoxide, 5% Solutol HS 15 and 90% physiological saline to give solution, which was used for oral and intravenous administration.
Male SD rats weighing 190-250 g were randomly divided into two groups, each group had three members; one group received test compound at a dose of 1.0 mg/kg by intravenous injection, the other group received test compound at a dose of 2.5 or 5.0 mg/kg by oral. After dosing, blood samples were collected at time points of 0.0833, 0.25, 0.5, 1.0, 2.0, 4.0, 7.0 and 24 h. Standard curve was plotted based on concentrations of the samples in a suitable range, the concentrations of test compounds in plasma samples were determined by using AB SCIEX API4000 LC-MS/MS in MRM mode. Pharmacokinetic parameters were calculated according to drug concentration-time curve using a noncompartmental method by WinNonLin 6.3 software.

As to `COC(=O)N(C)c1c(N)nc(-c2nn(Cc3ccccc3F)c3c(F)cc(F)cc23)nc1N` [Example 2, methyl (4,6-diamino-2-(5,7-difluoro-1-(2-fluorobenzyl)-1H-indazol-3-yl)pyrimidin-5-yl)(methyl)carbamate], in data set [1], the EC50 amounted to 220 nM. Besides, the F in data set [2] turned out to be 138.6%. In data set [2] (iv, 1 mg/kg), the AUC(0-t) was 2020 ng·h/mL, the concentration peaked (Cmax) at 680 ng/mL, the Tmax is 0.083 h and the clearance stood at 6.16 mL/min/kg. For the same compound, in data set [2] (iv, 1 mg/kg), the half-life is 3.7 h and the Vd is 1.88 L/kg. Moreover, in data set [2] (po, 5 mg/kg), the AUC(0-t) came out at 14000 ng·h/mL, the Cmax is 1130 ng/mL, the Tmax came out at 2 h and the half-life was 3.61 h.

In the case of `COC(=O)N(C)c1c(N)nc(-c2nn(Cc3ccccc3F)c3cc(F)ccc23)nc1N` [Example 6, methyl (4,6-diamino-2-(6-fluoro-1-(2-fluorobenzyl)-1H-indazol-3-yl)pyrimidin-5-yl)(methyl)carbamate], in data set [1], the EC50 amounted to 230 nM. The compound also came in with a F in data set [2] of 135.3%. Also, in data set [2] (iv, 1 mg/kg), the AUC(0-t) was found to be 2700 ng·h/mL, the Cmax was 1310 ng/mL, the Tmax came out at 0.083 h and the clearance came to 6.18 mL/min/kg. For the same compound, in data set [2] (iv, 1 mg/kg), the half-life was 1.57 h and the Vd is 1.07 L/kg. Also, in data set [2] (po, 5 mg/kg), the AUC(0-t) came to 18300 ng·h/mL, the peak level (Cmax) was 2480 ng/mL, the Tmax is 1.33 h and the half-life is 2.98 h.

Turning to `COC(=O)N(C)c1c(N)nc(-c2nn(Cc3ccccc3F)c3c(F)cccc23)nc1N` [Example 11, methyl (4,6-diamino-2-(7-fluoro-1-(2-fluorobenzyl)-1H-indazol-3-yl)pyrimidin-5-yl)(methyl)carbamate], the EC50 in data set [1] came to 82 nM. The same compound returned a F in data set [2] of 107.3%. Also, in data set [2] (iv, 1 mg/kg), the AUC(0-t) amounted to 1220 ng·h/mL, the Cmax was determined as 834 ng/mL, the Tmax was found to be 0.083 h and the clearance stood at 13.4 mL/min/kg. Also, in data set [2] (iv, 1 mg/kg), the half-life was 1.37 h and the Vd was 1.35 L/kg. In addition, in data set [2] (po, 5 mg/kg), the AUC(0-t) turned out to be 6580 ng·h/mL, the concentration peaked (Cmax) at 1080 ng/mL, the Tmax was 1.67 h and the half-life was 2.45 h.

`Nc1nc(-c2nn(Cc3ccccc3F)c3c(F)cccc23)nc(N)c1N1CCCS1(=O)=O` [Example 13, 2-(4,6-diamino-2-(7-fluoro-1-(2-fluorobenzyl)-1H-indazol-3-yl)pyrimidin-5-yl)isothiazolidine 1,1-dioxide]: the EC50 in data set [1] was found to be 36 nM. Moreover, the F in data set [2] stood at 109.8%. In addition, in data set [2] (iv, 1 mg/kg), the exposure AUC(0-t) is 921 ng·h/mL, the Cmax turned out to be 778 ng/mL, the time of peak concentration (Tmax) was 0.083 h and the half-life is 0.916 h. The Vd in data set [2] (iv, 1 mg/kg) came to 6.38 L/kg. Besides, in data set [2] (po, 5 mg/kg), the AUC(0-t) came out at 5010 ng·h/mL, the highest level (Cmax) was 1170 ng/mL, the time to peak (Tmax) is 1.67 h and the half-life was 1.57 h.

With `Nc1nc(-c2nn(Cc3ccccc3F)c3c(F)cccc23)nc(N)c1N1CCOC1=O` [Example 15, 3-(4,6-diamino-2-(7-fluoro-1-(2-fluorobenzyl)-1H-indazol-3-yl)pyrimidin-5-yl)oxazolidin-2-one], the EC50 in data set [1] stood at 300 nM. Moreover, in data set [2], the F stood at 86%. For the same compound, in data set [2] (iv, 1 mg/kg), the AUC(0-t) amounted to 2060 ng·h/mL, the Cmax is 981 ng/mL, the Tmax came out at 0.083 h and the clearance is 7.91 mL/min/kg. Besides, in data set [2] (iv, 1 mg/kg), the half-life is 5.56 h and the Vd turned out to be 2.03 L/kg. For the same compound, in data set [2] (po, 5 mg/kg), the AUC(0-t) came out at 8860 ng·h/mL, the highest level (Cmax) was 768 ng/mL, the Tmax was 3 h and the half-life was 3.13 h.

For `OCCNc1nc(-c2nn(Cc3ccccc3F)c3c(F)cccc23)ncc1F` [Example 60, 2-((5-fluoro-2-(7-fluoro-1-(2-fluorobenzyl)-1H-indazol-3-yl)pyrimidin-4-yl)amino)ethanol], the EC50 in data set [1] came to 120 nM.

As for `OCCN1CCN(c2nc(-c3nn(Cc4ccccc4F)c4c(F)cccc34)ncc2F)CC1` [Example 62, 2-(4-(5-fluoro-2-(7-fluoro-1-(2-fluorobenzyl)-1H-indazol-3-yl)pyrimidin-4-yl)piperazin-1-yl)ethanol], the concentration for a half-maximal effect (EC50) in data set [1] was found to be 75 nM.
